We go through 39 compounds from patent US9090600B2, “Fungicidal 4-substituted-3-{phenyl[(heterocyclylmethoxy)imino]methyl}-1,2,4-oxadizol-5(4H)-one derivatives” (BAYER INTELLECTUAL PROPERTY GMBH, priority 2011, dated 2015).

The conditions of data set [1]: pH 2.7.
The test system of another data set is Phytophthora infestans. It is filed as in vivo. Conditions: tomato plants, spray, 500 ppm, grading 5 days after contamination.

Marks after values point to notes of the source that are not given here.

As usually defined, the LogP is a log measure of how a compound divides between an organic and an aqueous phase.

Turning to `CC(Oc1ccccc1Cl)C(=O)Nc1nc(CO/N=C(/c2ccccc2)c2noc(=O)n2C)cs1` (racemic) [Example 366], the LogP in data set [1] is 4.07 [a]. Further, the Eff. % in the data set with Phytophthora infestans is listed as 94%.

Regarding `CC(C)CC(C)OC(=O)Nc1cccc(CO/N=C(/c2ccc(F)cc2)c2noc(=O)n2C)n1` (racemic) [Example 383], the LogP in data set [1] was 4.77 [a]. The Eff. % in the data set on Phytophthora infestans is reported as 70%.

For `CCC(C(=O)Nc1cccc(CO/N=C(/c2ccccc2)c2noc(=O)n2C)n1)c1ccccc1` (racemic) [Example 386], the LogP in data set [1] is 4.23 [a]. Besides, the Eff. % in the data set on Phytophthora infestans turned out to be 80%.

On to `CC(OCC1CC1)C(=O)Nc1cccc(CO/N=C(/c2ccccc2)c2noc(=O)n2C)n1` (racemic) [Example 390], for which, in data set [1], the LogP is 3.78 [a]. The compound further gave an Eff. % in the data set on Phytophthora infestans of 100%.

With `Cn1c(/C(=N\OCc2csc(NC(=O)c3ccccc3F)n2)c2ccccc2)noc1=O` [Example 27], the lipophilicity (LogP) in data set [1] was 3.44 [a]. This compound also gave an Eff. % in the data set on Phytophthora infestans of 100%.

Regarding `Cn1c(/C(=N\OCc2cccc(NC(=O)Cc3ccccc3Cl)n2)c2ccccc2)noc1=O` [Example 29], the LogP in data set [1] was 3.76 [a]. The compound also yielded an Eff. % with Phytophthora infestans of 100%.

As to `CCCCCCCC(=O)Nc1cccc(CO/N=C(/c2ccccc2)c2noc(=O)n2C)n1` [Example 32], the LogP in data set [1] was 4.71 [a]. The Eff. % with Phytophthora infestans came to 100%.

On to `CCCOC(=O)Nc1cccc(CO/N=C(/c2ccccc2)c2noc(=O)n2C)n1` [Example 33], for which the LogP in data set [1] was 3.62 [a]. In addition, in the data set with Phytophthora infestans, the Eff. % is 100%.

`CC(C)CCOC(=O)Nc1nc(CO/N=C(/c2ccccc2)c2noc(=O)n2C)cs1` [Example 47]: the LogP in data set [1] was 4.06 [a]. The compound further displayed an Eff. % with Phytophthora infestans of 100%.

For the compound `CCOCCC(=O)Nc1cccc(CO/N=C(/c2ccccc2)c2noc(=O)n2C)n1` [Example 48], the LogP in data set [1] was 2.96 [a]. The Eff. % in the data set with Phytophthora infestans is given as 98%.

For the compound `CC(=O)Nc1cccc(CO/N=C(/c2ccccc2)c2noc(=O)n2C)n1` [Example 52], the LogP in data set [1] was 2.44 [a]. For the same compound, in the data set with Phytophthora infestans, the Eff. % is listed as 100%.

For the compound `Cn1c(/C(=N\OCc2csc(NC(=O)COc3ccc(Br)cc3)n2)c2ccccc2)noc1=O` [Example 55], the LogP in data set [1] is 3.94 [a]. Further, in the data set with Phytophthora infestans, the Eff. % stood at 100%.

With `CCC(C)CCOC(=O)Nc1cccc(CO/N=C(/c2ccccc2)c2noc(=O)n2C)n1` (stereo not drawn) [Example 56], the LogP in data set [1] was 4.78 [a]. This compound also had an Eff. % with Phytophthora infestans of 100%.

As to `CCn1c(/C(=N\OCc2cccc(NC(=O)OC3CCCCC3)n2)c2ccccc2)noc1=O` [Example 61], the LogP in data set [1] was 4.77 [a]. Moreover, the Eff. % with Phytophthora infestans turned out to be 100%.

With `Cn1c(/C(=N\OCc2csc(NC(=O)OCC(C)(C)C)n2)c2ccccc2)noc1=O` [Example 72], the LogP in data set [1] is 4.01 [a]. Moreover, in the data set on Phytophthora infestans, the Eff. % worked out at 97%.

As to `Cn1c(/C(=N\OCc2csc(NC(=O)Oc3ccccc3)n2)c2ccccc2)noc1=O` [Example 75], in data set [1], the LogP was 3.48 [a]. The Eff. % in the data set with Phytophthora infestans stood at 90%.

On to `Cn1c(/C(=N\OCc2cccc(NC(=O)CC3CC4CCC3C4)n2)c2ccccc2)noc1=O` (stereo not drawn) [Example 78], for which the log partition coefficient (LogP) in data set [1] was 4.39 [a]. The same compound came in with an Eff. % in the data set with Phytophthora infestans of 100%.

For the compound `Cn1c(/C(=N\OCc2cccc(NC(=O)OCC(C)(C)c3ccccc3)n2)c2ccccc2)noc1=O` [Example 79], the LogP in data set [1] was 4.71 [a]. In the data set on Phytophthora infestans, this compound came in with an Eff. % of 88%.

On to `Cn1c(/C(=N\OCc2csc(NC(=O)c3ccccc3Br)n2)c2ccccc2)noc1=O` [Example 81], for which, in data set [1], the LogP is 3.51 [a]. The compound further gave an Eff. % in the data set with Phytophthora infestans of 78%.

On to `Cc1ccccc1OC(C)C(=O)Nc1nc(CO/N=C(/c2ccccc2)c2noc(=O)n2C)cs1` (stereo not drawn) [Example 82], for which the log partition coefficient (LogP) in data set [1] is 4.12 [a]. This compound also had an Eff. % in the data set with Phytophthora infestans of 99%.

Regarding `Cc1cccc(/C(=N/OCc2cccc(N(C(=O)OC(C)(C)C)C(=O)OC(C)(C)C)n2)c2noc(=O)n2C)c1` [Example 87], the LogP in data set [1] was 4.77 [a]. Besides, in the data set with Phytophthora infestans, the Eff. % amounted to 95%.

As for `Cn1c(/C(=N\OCc2cccc(NC(=O)OCCc3ccc(F)cc3)n2)c2ccccc2)noc1=O` [Example 89], the LogP in data set [1] was 4.19 [a]. In the data set on Phytophthora infestans, this compound gave an Eff. % of 99%.

As to `COc1ccccc1C(=O)Nc1nc(CO/N=C(/c2ccccc2)c2noc(=O)n2C)cs1` [Example 91], the LogP in data set [1] is 3.71 [a]. This compound also displayed an Eff. % with Phytophthora infestans of 85%.

With `CCCCOC(C)C(=O)Nc1cccc(CO/N=C(/c2ccccc2)c2noc(=O)n2C)n1` (stereo not drawn) [Example 93], the lipophilicity (LogP) in data set [1] was 4.3 [a]. In the data set with Phytophthora infestans, the Eff. % is 99%.

For the compound `CCCCCCCCC(=O)Nc1cccc(CO/N=C(/c2ccccc2)c2noc(=O)n2C)n1` [Example 98], the LogP in data set [1] was 5.11 [a]. In the data set on Phytophthora infestans, this compound showed an Eff. % of 99%.

Regarding `COc1ccc(CC(=O)Nc2cccc(CO/N=C(/c3cccc(OC)c3)c3noc(=O)n3C)n2)cc1` [Example 101], the LogP in data set [1] was 3.51 [a]. Further, in the data set with Phytophthora infestans, the Eff. % was determined as 97%.

Take `Cn1c(/C(=N\OCc2csc(NC(=O)OC3CCCC3)n2)c2ccccc2)noc1=O` [Example 103]: the log partition coefficient (LogP) in data set [1] was 3.76 [a]. In the data set with Phytophthora infestans, this compound gave an Eff. % of 80%.

In the case of `Cn1c(/C(=N\OCc2cccc(NC(=O)OCCc3ccccc3Cl)n2)c2ccccc2)noc1=O` [Example 106], the LogP in data set [1] is 4.56 [a]. Besides, the Eff. % with Phytophthora infestans was 75%.

As for `CCCCCCOC(=O)Nc1cccc(CO/N=C(/c2ccccc2)c2noc(=O)n2C)n1` [Example 107], the LogP in data set [1] is 4.85 [a]. In the data set on Phytophthora infestans, this compound displayed an Eff. % of 100%.

Turning to `Cn1c(/C(=N\OCc2cccc(NC(=O)OC3CCCC3)n2)c2ccccc2)noc1=O` [Example 110], in data set [1], the lipophilicity (LogP) is 4.09 [a]. In the data set with Phytophthora infestans, the Eff. % is 98%.

`COc1cccc(/C(=N/OCc2cccc(NC(=O)OC3CCCCC3)n2)c2noc(=O)n2C)c1` [Example 112]: the log partition coefficient (LogP) in data set [1] was 4.49 [a]. The compound also had an Eff. % in the data set with Phytophthora infestans of 73%.

`Cn1c(/C(=N\OCc2cccc(NC(=O)c3ccccc3F)n2)c2ccccc2)noc1=O` [Example 114]: the lipophilicity (LogP) in data set [1] was 3.73 [a]. Further, in the data set with Phytophthora infestans, the Eff. % is 100%.

Regarding `Cn1c(/C(=N\OCc2cccc(NC(=O)C3CCC3)n2)c2ccccc2)noc1=O` [Example 118], the LogP in data set [1] is 3.27 [a]. In the data set with Phytophthora infestans, this compound showed an Eff. % of 100%.

For `COC(=O)C(C)OC(=O)Nc1cccc(CO/N=C(/c2ccccc2)c2noc(=O)n2C)n1` (stereo not drawn) [Example 119], the log partition coefficient (LogP) in data set [1] is 3.17 [a]. The Eff. % in the data set with Phytophthora infestans was 97%.

Consider `Cn1c(/C(=N\OCc2csc(NC(=O)COc3ccc(Cl)cc3Cl)n2)c2ccccc2)noc1=O` [Example 123], for which, in data set [1], the lipophilicity (LogP) was 4.23 [a]. The Eff. % with Phytophthora infestans is reported as 98%.

For the compound `C#CCC(C)OC(=O)Nc1cccc(CO/N=C(/c2ccccc2)c2noc(=O)n2CC)n1` (stereo not drawn) [Example 127], the LogP in data set [1] was 3.81 [a]. Also, the Eff. % in the data set with Phytophthora infestans amounted to 100%.

Turning to `Cn1c(/C(=N\OCc2cccc(NC(=O)OCCF)n2)c2ccccc2)noc1=O` [compound 551], the lipophilicity (LogP) in data set [1] is 2.96 [a].

With `CC(C)c1cccc(OC(=O)Nc2cccc(CO/N=C(/c3ccccc3)c3noc(=O)n3C)n2)c1` [compound 553], the LogP in data set [1] is 4.64 [a].

As to `CCOC(=O)COC(=O)Nc1cccc(CO/N=C(/c2ccccc2)c2noc(=O)n2C)n1` [compound 554], the LogP in data set [1] was 3.21 [a].
